“And” between values parts separate entries of the source, which are not always exact repeats. Identical values can stand only once.
Experiments:
[1] = tested on: basal induced angiogenesis; experiment: In vivo chamber implant angiogenesis assay, base line (no GF stimulation, PBS control chamber); design: species or system FVB mice
Protocol: Porous perfluoro-alkoxy-Teflon® chambers containing PBS in 0.5 ml of 0.8% w/v agar (containing heparin, 20 U/mL) were implanted subcutaneously in the flank of FVB mice. Animals were treated orally either with Compound A at 50 mg/kg once a day or vehicle (5 ml/kg) starting 4-6 hours before implantation of the chambers and daily for 3 days. Basal tissue formed around the chamber was carefully removed and the weight and Tie-2 levels were quantified. Animals were sacrificed 4 days after the implantation. Values are mean±SEM. *p<0.05, statistical significance of inhibition. The total number of animals per group is given in brackets.
(§1) Sterile tissue chambers made of perfluoro-alkoxy-Teflon® were filled with 500 μl molten 0.8% w/v agar containing 20 U/mL heparin (Novo Nordisk A/S, Bagsvaerd, Denmark) with or without growth factor (dog VEGF 2 μg/mL or phosphate buffer saline (PBS/O)). The chamber was implanted aseptically under isoflurane anesthesia through a small incision on the back of the animal and the incision was closed by wound clips. Animals were treated orally either with Compound A at 12.5, 25 or 50 mg/kg once a day formulated in a vehicle of NMP/PEG300 (10/90, V/V) or vehicle alone starting 4-6 hours before implantation of the chambers and daily for three days. VEGF induces the growth of vascularized tissue around the chamber. The angiogenic response can be quantified by measuring the weight and Tie-2 levels of the tissue.
(§2) Four days after implantation, animals were sacrificed using CO2. The chambers were recovered from the animal and the vascularized tissue that had formed around each implant was carefully removed and weighed. Tissue samples were homogenized for 30 sec at 24000 rpm (Ultra Turrax T25) after addition of 1 mL of Ripa buffer (Tris-HCl 50 mM, NaCl 120 mM, EDTA 1 mM, EGTA 6 mM, NP-40 1%, Sodium fluoride 20 mM, Pefabloc SC 1 mM, Sodium vanadate 1 mM). The samples were then centrifuged for 1 h at 7000 rpm. The supernatant was filtered using a 0.45 μm syringe filter (Acrodisc® GF, Gelman Sciences, Ann Arbor, Mich., USA) to avoid fat contamination.
Tie-2 is a receptor tyrosine kinase which is specifically expressed on endothelial cells. For Tie-2 level determination, Nunc (Naperville, Ill.) Maxisorp 96-well plates were coated over night at 4° C. with the capture antibody, anti-Tie-2 AB33 (UBI, Hauppauge, N.Y.), with a concentration of 2 μg/mL (100 μL/well). Wells were washed in TPBS (Tween 80 PBS) and blocked by incubating with 3% Top-Block (Juro, Lucerne, Switzerland) for 2 hours at room temperature. […] Tie-2 antibody complexes were detected after incubation with p-nitrophenyl phosphate substrate (Sigma). The absorbance of the spectro-photometric reaction was determined with an ELISA reader at 405 nm. […]
Four days after the subcutaneous implantation of the VEGF containing chambers, VEGF induced the formation of a thick layer of neovascularised tissue (called capsule) that grew around the implant. […] Tissue formation can be quantified by measuring the weight and the angiogenic response can be quantified by measuring the Tie-2 levels of the capsule. An ELISA assay can quantitatively measure endothelial cells in tissue extracts to evaluate the vascularization of the tissue. […]

BN472 tumors [2] = experiment: Efficacy experiment with orthotopic BN472 rat mammary carcinoma model; settings: qd, p.o.; for T/C (%): 0.5% Methylcellulose suspension
Description: BN472 tumors were established by orthotopic implantation of tumor fragments into the mammary fat pad of BN rats. Female Brown-Norway (BN) rats (obtained from Charles River (France)) weighing 160-180 g (6-7 weeks of age) were used for all experiments. They were identified by tail markings and kept in groups of 3-5 animals under normal conditions with access to food and water ad libitum. Tumor fragments of 25 mm^3 were taken from the cortex region and were transplanted orthotopically under the fat pad of the fourth left mammary gland of the recipients. For efficacy experiments, treatments were always initiated when the mean tumor volume in each group reached 400-500 mm^3.

BN472 tumors [3] = experiment: Tumor interstitial fluid pressure (IFP) by radio-telemetry; type: in vivo, Brown-Norway (BN) rats
Protocol: FIG. 4: Effects of Compound A on tumor interstitial fluid pressure. (A) Orthotopic BN472 tumor bearing rats containing a pressure sensing catheter inserted in the tumor were treated with Compound A at 25 mg/kg (n=6; initial IFP: 25.4 mmHg±2.8), or with the vehicle control (n=9; 18.2 mmHg±1.5) for 3 consecutive days. The IFP was recorded for 72 h and variations (delta towards initial values) plotted (gray lines: untreated animals; dark line: applied treatment as indicated in the graph). Data presented are means±SEM. (B) Same as in A except that additional animals were treated orally with a lower dose of 12.5 mg/kg Compound A (n=3; initial IFP: 18.8 mmHg±2.3; gray line). Recording was extended for 3 additional days post last treatment to assess recovery patterns. The arrows represent the administration schedule. Gray bars represent night time.
The IFP of BN472 tumors was measured in conscious, freely moving rats maintained in their home cage using an adapted fully implantable miniaturized radio-telemetry system (Data Sciences Int., St. Paul, Minn.) composed of 4 basic components: an implantable transmitter (AM unit, model TLM-PAC10, volume: 1.1 cc, weight: 1.4 g) which continuously senses and transmits information from within the animal, one receiver located under the home cage, a matrix interface for coordination of signals and a computer-based data acquisition system for collection, analysis and storage of data. The body of the transmitter was implanted s.c. under aseptic conditions into the flank of the animal under isofluorane anaesthesia (3% Isoflurane in O2). Briefly, once animals are fully unconscious, they are placed on a heated blanket and the abdominal area is shaved. The ventral surface of the abdomen is then prepared by swabbing the skin with povidone iodine surgical scrub. With the animal supine, a skin incision of approximately 30 mm is made along the midline of the abdomen and the skin separated from the muscle wall building an air pocket. The sterile transmitter is then positioned in this pocket and the sensing catheter tunneled subcutaneously towards the tumor site (lowest mammary fat pad). The sensing pressure catheter was inserted into the body of the tumor (4-5 mm depth) and secured at the site of entry with tissue adhesive (Vetbond; 3M Company). Fluid communication between the tip of the pressure catheter and the tumor was tested by gentle compressing and decompressing the tubing connected to the telemetry transducer using a clamp. […] However, in most of the implanted tumors, intra-tumoral IFP pulse pressure waveform curves could be recorded unstintingly with high resolution confirming even more strongly the adequate sensing catheter placement. The total operation time for the implantation of the telemetry transmitter was about 20 min. Postoperative analgesia was provided using Buprenorphin (Temgesic®, Reckitt and Colman) injection of 0.05 mg/kg s.c. twice, immediately after surgery and 8-12 h later. Following surgery, the unconscious animal is placed on soft material in a clean cage with water ad libitum. An external heat lamp is used to maintain body temperature. The animals were allowed a period of 2 days to recover from surgery before starting acquisition of any physiological data. IFP was recorded continuously in all animals over 24 hours up to 5 days, and analyzed in 1-min cyclic runs for 10 sec, with a 500-Hz sampling rate. Values presented are means over 15 min periods.

[4] = tested on: VEGF-induced vessel leakage; experiment: In vivo VEGF induced permeability assay (Miles assay); design: species or system FVB mice; settings: 3, 6.25, 12.5 and 25 mg/kg p.o., 5 hours before VEGF injection in the ear
Protocol: FIG. 3: Effects of Compound A on VEGF induced permeability in vivo. FVB mice pre-treated with Compound A (3, 6.25, 12.5 and 25 mg/kg, p.o., for 5 h) were injected i.v. with Evans blue and challenged 30 minutes later with VEGF injection in the ear. Mice were then sacrificed and VEGF-mediated vessel leakage is quantified by measurement of the area (mm^2) of dye that extravasated at the site of VEGF injection using pixel-based threshold in computer-assisted image analysis software. Values are mean±SEM. *p<0.05, statistical significance of inhibition. The total number of animals per group is given in brackets.
200 μl of Evans blue (0.5%) was injected into the tail vein of female FVB mice. Thirty minutes following administration of the dye, the mice were anaesthesized (3% Isoflurane in O2, Forene®, Abbott AG, Cham, Switzerland) and then placed on an operating field maintained at a temperature of 39° C. Their ears were extended over a steel cone fitted with a double-sided sticker to expose the dorsal surface. […] VEGF-mediated vessel leakage is quantified by measurement of the area (mm^2) of dye that extravasated at the site of VEGF injection using pixel-based threshold in a computer-assisted image analysis software (KS-400 3.0 imaging system, Zeiss, Germany). […]

[5] = tested on: angiogenic response induced by VEGF; experiment: In vivo chamber implant angiogenesis assay, VEGF-stimulated; design: species or system FVB mice
Protocol: Porous perfluoro-alkoxy-Teflon® chambers containing PBS or VEGF (2 μg/mL) in 0.5 ml of 0.8% w/v agar (containing heparin, 20 U/mL) were implanted subcutaneously in the flank of FVB mice. Animals were treated orally either with Compound A at 12.5, 25 and 50 mg/kg once a day or vehicle (5 ml/kg) starting 4-6 hours before implantation of the chambers and daily for 3 days. VEGF induces the growth of vascularized tissue around the chamber. The angiogenic response can be quantified by measuring the weight and Tie-2 levels of the tissue. Animals were sacrificed 4 days after the implantation. Values are mean±SEM. *p<0.05, statistical significance of inhibition. The total number of animals per group is given in brackets.
as §1, §2
Tie-2 is a receptor tyrosine kinase which is specifically expressed on endothelial cells. For Tie-2 level determination, Nunc (Naperville, Ill.) Maxisorp 96-well plates were coated over night at 4° C. with the capture antibody, anti-Tie-2 AB33 (UBI, Hauppauge, N.Y.), with a concentration of 2 μg/mL (100 μL/well). Wells were washed in TPBS (Tween 80 PBS) and blocked by incubating with 3% Top-Block (Juro, Lucerne, Switzerland) for 2 hours at room temperature. 300 μg of protein lysates were added and incubated for 2 hours, and the wells washed three times before addition of a goat anti-mouse Tie-2 antibody (R&D Systems, Minneapolis, Minn.; 0.5 μg/mL) and an alkaline phosphate conjugated anti-goat antibody (Sigma, St. Louis, Mo.; diluted 1:6,000) in TPBS+0.1%Top-Block for 1 hour at room temperature. Tie-2 antibody complexes were detected after incubation with p-nitrophenyl phosphate substrate (Sigma). The absorbance of the spectro-photometric reaction was determined with an ELISA reader at 405 nm. Recombinant human extracellular domain of Tie-2 fused to the constant regions of human IgG1 (sTie-2Fc) dissolved in RIPA buffer was used as standard in a concentration range from 0.1 to 300 ng/well
Four days after the subcutaneous implantation of the VEGF containing chambers, VEGF induced the formation of a thick layer of neovascularised tissue (called capsule) that grew around the implant. PBS containing chambers induced a much thinner layer of tissue with very few blood vessels around control chamber. Tissue formation can be quantified by measuring the weight and the angiogenic response can be quantified by measuring the Tie-2 levels of the capsule. An ELISA assay can quantitatively measure endothelial cells in tissue extracts to evaluate the vascularization of the tissue. […]

[6] = 50 mg/kg p.o. once a day, exp. 1, mean ± SEM
[7] = 50 mg/kg p.o. once a day, exp. 2, mean ± SEM
[8] = 50 mg/kg, chamber without growth factor
[9] = 12.5 mg/kg p.o. once a day, exp. 2, mean ± SEM
[10] = 25 mg/kg p.o. once a day, exp. 2, mean ± SEM

## Cc1nc(NC(=O)N2CCC[C@H]2C(N)=O)sc1-c1ccnc(C(C)(C)C(F)(F)F)c1 [Compound A, (S)-Pyrrolidine-1,2-dicarboxylic acid 2-amide 1-({4-methyl-5-[2-(2,2,2-trifluoro-1,1-dimethyl-ethyl)-pyridin-4-yl]-thiazol-2-yl}-amide)]
[1]; [6]
  % inhibition Base line (no GF stimulation), Capsule weight: 14 ± 11 (2) %
[1]; [7]
  % inhibition Base line (no GF stimulation), Capsule weight: 12 ± 10 (3) %
  % inhibition Base line (no GF stimulation), Total Tie-2: 29 ± 9 * (3) %
[1]; [8]
  Tie-2 levels, basal induced angiogenesis: significantly reduced
  tissue weight, basal induced angiogenesis: did not affect tissue weight
BN472 tumors [2]; 20 mg/kg
  % change of body weight corrected: 1.2 ± 0.5%
  Mean fold change in tumor growth: 4.6 ± 0.8
  Survival (Survivors/total): 5/5
  Δ Body weight (mean g ± SEM): 4.0 ± 1.1 g
  Δ tumor volume (mean mm^3 ± SEM): 1725 ± 283 * mm^3
  T/C (%): 36% and 36 * %
BN472 tumors [2]; 40 mg/kg
  % change of body weight corrected: −1.8 ± 0.5%
  Mean fold change in tumor growth: 3.3 ± 0.2
  Survival (Survivors/total): 5/5
  Δ Body weight (mean g ± SEM): -2.5 ± 0.9 g
  Δ tumor volume (mean mm^3 ± SEM): 1108 ± 198 * mm^3
  T/C (%): 23% and 23 * %
BN472 tumors [3]; 12.5 mg/kg
  IFP pattern over three days of treatment compared with 25 mg/kg: very similar pattern
  time post last treatment at which IFP returned to initial values: ≤ 60 h
BN472 tumors [3]; 25 mg/kg
  time post last treatment without normalization of IFP diminution: > 72 h
BN472 tumors [3]; 25 mg/kg, 4 hours post treatment
  reduction in IFP: clear and significant reduction
BN472 tumors [3]; 25 mg/kg, 22 hours post dosage
  IFP change at max after first treatment: −25%
BN472 tumors [3]; 25 mg/kg, second treatment at time point 24 hours
  IFP inhibition after second treatment: −36%
BN472 tumors [3]; 25 mg/kg, third treatment, sustained for 48 hours
  IFP inhibition after third treatment: −43%
[4]
  abrogation of VEGF-induced Evans blue dye extravasation: up to 90%
[5]; 12.5 mg/kg p.o. once a day, exp. 1, mean ± SEM
  % inhibition VEGF-stimulated, Capsule weight: 64 ± 33 (3) %
[5]; [9]
  % inhibition VEGF-stimulated, Capsule weight: 74 ± 24 (4) %
  % inhibition VEGF-stimulated, Total Tie-2: 58 ± 22 (4) %
[5]; 25 mg/kg p.o. once a day, exp. 1, mean ± SEM
  % inhibition VEGF-stimulated, Capsule weight: 84 ± 5 * (3) %
[5]; [10]
  % inhibition VEGF-stimulated, Capsule weight: 106 ± 28 * (4) %
  % inhibition VEGF-stimulated, Total Tie-2: 113 ± 38 * (4) %
[5]; 50 mg/kg given daily
  Tie-2 levels of the capsule, VEGF chamber: returned to the baseline or even below
[5]; [6]
  % inhibition VEGF-stimulated, Capsule weight: 88 ± 12 * (4) %
[5]; [7]
  % inhibition VEGF-stimulated, Capsule weight: 121 ± 11 * (6) %
  % inhibition VEGF-stimulated, Total Tie-2: 145 ± 9 * (6) %
[5]; once a day at 12.5, 25 and 50 mg/kg in solution
  angiogenic response induced by VEGF (weight and Tie-2 level of the capsule): inhibited significantly
